“And” between values parts separate entries of the source, which are not always exact repeats. Identical values can stand only once.
Experiments:
[1] = system: phospho-IκBα (Ser32); assay: NanoBiT cell-based immunoassay, phosphorylated IκBα in human primary mammary epithelial cells; conditions: for P-IkB Average: background subtracted; for P-IkB Raw data / P-IkB Subtract reagent background: listed as TNF
Description: (§1) All cell lines used are from ATCC. […] Human Primary Mammary Epithelial Cells (#H-6035), Human Breast Tumor Epithelial Cells (#HC-6035), Complete Human Epithelial Cell Medium (#H6621), and Gelatin-Based Coating Solution (#H6950) were purchased from Cell Biologics. The cells were cultured according to the manufacturer’s procedure. All cells were grown at 37 °C in a 5% CO2 humidified incubator and passaged before reaching 80% cell confluency. Prior to each experiment, cells were counted by combining 30 µl of cell suspension with 30 µl of trypan blue. After gentle pipetting up and down to mix the cells and the dye, the cell number was determined using Bio-Rad TC 20 cell counter.
(§2) Prior to NanoBiT Cell-Based Immunoassay, 50,000 cells were seeded in 160 µl of complete growth media per well of a 96-well plate and incubated overnight. The cells were checked under microscope and it was determined that 50,000 cells per well in 96-well plate is under 90% confluency for all cells tested. If necessary, the cell culture media were replaced with serum-free media after the cells were stably adherent on the plate and incubated overnight. To treat cells with activators or inhibitors, medium was changed to 30 µl of medium containing inhibitors. If activation of a specific pathway is needed, the cells were stimulated with 10 µl of medium containing activators. To lyse the cells, 10 µl of lysis buffer containing 0.1% digitonin diluted in 1X immunoassay buffer with protease and phosphatase inhibitors was added and the plates were mixed vigorously for 20 min. Then, 50 µl of an antibody mix containing two primary antibodies against the target protein and NanoBiT detecting antibodies (0.3 µl each per well), diluted in 1X immunoassay buffer was added to the lysates. The plates were incubated at 23 °C for 90 min, followed by the addition of 25 µl of Nano-Glo® reagent consisting of Nano-Glo® Luciferase Assay Substrate mixed with 1X immunoassay buffer. Luminescence was measured using a plate-reading luminometer.
(§3) Single dose or dose response inhibitor treatments were performed prior to activation of the pathways as follows. For IκBα, the cells were treated in 30 µl medium with IKK16 or MG132 for 60 min before the addition of 10 µl of DMEM containing appropriate concentration of TNFα. To measure phosphorylation of AKT or STAT3, the corresponding NanoBiT immunoassays were developed with MCF-7 or A431 cells, respectively, according the same scheme used to develop the IκBα assay using the primary antibodies for AKT and STAT3 described in the reagents section. For the AKT assay, MCF-7 cells were incubated overnight in phenol-red free DMEM medium (Gibco #21063-029) without serum. Treatment with LY294002 was performed in 30 µl medium and cells were incubated for 60 min before the addition of 1 µM Insulin. To measure STAT3 phosphorylation, A431 cells were incubated overnight in DMEM medium without serum. […] After addition of the stimulators, the cells were incubated for additional times as follows. IκBα phosphorylation and degradation analyses required both time courses and single time points as described in figures. […] The NanoBiT immunoassay protocol was followed as described above.
(§4) All 96-well assay plates were read using a GloMax® 96 Microplate Luminometer from Promega. The instrument was set to 0.5 s integration time. In order to obtain net change of signal, the reagent background values (signal from the well containing all reagent except primary antibodies) were subtracted from the sample values. To plot and analyze the data, Microsoft Excel and GraphPad Prism® Software were used. IC50 values were determined by using a nonlinear regression fit to a sigmoidal dose response (variable slope).

[2] = system: total IκBα; assay: NanoBiT cell-based immunoassay, total IκBα in human primary mammary epithelial cells; conditions: for Total IkB Average: background subtracted; for Total IkB Raw data / Total IkB Subtract reagent background: listed as TNF;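 on all read-outs here: TNFα at 50 ng per ml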
Description: as §1, §2, §3, §4

For TNFα, the “P-IkB Average” value ([1]; TNF 2 min) was 5853, the “P-IkB Raw data” value ([1]; TNF 2 min) was 17220 and 16460 and 16920 and the “P-IkB Subtract reagent background” value ([1]; TNF 2 min) was 6207 and 5447 and 5907. For the same substance, the “P-IkB Average” value ([1]; TNF 4 min) was 8003, the “P-IkB Raw data” value ([1]; TNF 4 min) was 18510 and 19530 and 19010 and the “P-IkB Subtract reagent background” value ([1]; TNF 4 min) was 7497 and 8517. The “P-IkB Average” value ([1]; TNF 6 min) was 13540, the “P-IkB Raw data” value ([1]; TNF 6 min) was 23690 and 24890 and 25080 and the “P-IkB Subtract reagent background” value ([1]; TNF 6 min) was 12677 and 13877. For the same substance, the “P-IkB Average” value ([1]; TNF 8 min) was 18690, the “P-IkB Raw data” value ([1]; TNF 8 min) was 28000 and 30000 and 31110 and the “P-IkB Subtract reagent background” value ([1]; TNF 8 min) was 16987 and 18987. The “P-IkB Average” value ([1]; TNF 10 min) was 22970, the “P-IkB Raw data” value ([1]; TNF 10 min) was 33480 and 34070 and 34400 and the “P-IkB Subtract reagent background” value ([1]; TNF 10 min) was 22467 and 23057. For the same substance, the “P-IkB Average” value ([1]; TNF 12 min) was 25163, the “P-IkB Raw data” value ([1]; TNF 12 min) was 35750 and 35400 and 37380 and the “P-IkB Subtract reagent background” value ([1]; TNF 12 min) was 24737 and 24387. The “P-IkB Average” value ([1]; TNF 15 min) was 25267, the “P-IkB Raw data” value ([1]; TNF 15 min) was 35860 and 36040 and 36940 and the “P-IkB Subtract reagent background” value ([1]; TNF 15 min) was 24847 and 25027 and 25927. The “P-IkB Average” value ([1]; TNF 30 min) was 18640, the “P-IkB Raw data” value ([1]; TNF 30 min) was 29280 and 29480 and 30200 and the “P-IkB Subtract reagent background” value ([1]; TNF 30 min) was 18267 and 18467 and 19187. The “P-IkB Average” value ([1]; TNF 45 min) was 16850, the “P-IkB Raw data” value ([1]; TNF 45 min) was 28120 and 27980 and 27490 and the “P-IkB Subtract reagent background” value ([1]; TNF 45 min) was 17107 and 16967 and 16477. For the same substance, the “P-IkB Average” value ([1]; TNF 60 min) was 19710, the “P-IkB Raw data” value ([1]; TNF 60 min) was 31240 and 30980 and 29950 and the “P-IkB Subtract reagent background” value ([1]; TNF 60 min) was 20227 and 19967 and 18937. The “Total IkB Average” value ([2]; TNF 2 min) was 18292, the “Total IkB Raw data” value ([2]; TNF 2 min) was 29190 and 27950 and 27350 and the “Total IkB Subtract reagent background” value ([2]; TNF 2 min) was 19319 and 18079 and 17479. The “Total IkB Average” value ([2]; TNF 4 min) was 16139, the “Total IkB Raw data” value ([2]; TNF 4 min) was 26330 and 26760 and 24940 and the “Total IkB Subtract reagent background” value ([2]; TNF 4 min) was 16459 and 16889 and 15069. For the same substance, the “Total IkB Average” value ([2]; TNF 6 min) was 13185, the “Total IkB Raw data” value ([2]; TNF 6 min) was 23190 and 23370 and 22610 and the “Total IkB Subtract reagent background” value ([2]; TNF 6 min) was 13319 and 13499 and 12739. For the same substance, the “Total IkB Average” value ([2]; TNF 8 min) was 9145, the “Total IkB Raw data” value ([2]; TNF 8 min) was 19430 and 18940 and 18680 and the “Total IkB Subtract reagent background” value ([2]; TNF 8 min) was 9559 and 9069 and 8809. The “Total IkB Average” value ([2]; TNF 10 min) was 6539, the “Total IkB Raw data” value ([2]; TNF 10 min) was 16860 and 16350 and 16020 and the “Total IkB Subtract reagent background” value ([2]; TNF 10 min) was 6989 and 6479 and 6149. The “Total IkB Average” value ([2]; TNF 12 min) was 4795, the “Total IkB Raw data” value ([2]; TNF 12 min) was 14910 and 14630 and 14460 and the “Total IkB Subtract reagent background” value ([2]; TNF 12 min) was 5039 and 4759 and 4589. For the same substance, the “Total IkB Average” value ([2]; TNF 15 min) was 3099, the “Total IkB Raw data” value ([2]; TNF 15 min) was 13120 and 12980 and 12810 and the “Total IkB Subtract reagent background” value ([2]; TNF 15 min) was 3249 and 3109 and 2939. The “Total IkB Average” value ([2]; TNF 30 min) was 3035, the “Total IkB Raw data” value ([2]; TNF 30 min) was 13030 and 12940 and 12750 and the “Total IkB Subtract reagent background” value ([2]; TNF 30 min) was 3159 and 3069 and 2879. For the same substance, the “Total IkB Average” value ([2]; TNF 45 min) was 5225, the “Total IkB Raw data” value ([2]; TNF 45 min) was 15670 and 15120 and 14500 and the “Total IkB Subtract reagent background” value ([2]; TNF 45 min) was 5799 and 5249 and 4629. For the same substance, the “Total IkB Average” value ([2]; TNF 60 min) was 7062, the “Total IkB Raw data” value ([2]; TNF 60 min) was 16790 and 17170 and 16840 and the “Total IkB Subtract reagent background” value ([2]; TNF 60 min) was 6919 and 7299 and 6969.
